Results published in US12540128B2, “Substituted pyridazinones as herbicides” (SYNGENTA CROP PROTECTION AG, priority 2019, dated 2026).

Experiments:
Type in all cases: in vivo
Conditions in all cases: 250 g/ha, after 13 days
[1] = tested on: Abutilon theophrasti (ABUTH); experiment: B2 Post-Emergence Efficacy Test 2
Protocol: (§1) Seeds of a variety of test species are sown in standard soil in pots:— Amaranthus retoflexus (AMARE), Setaria faberi (SETFA), Echinochloa crus-galli (ECHCG), Ipomoea hederacea (IPOHE), Zea Mays (ZEAMX), Abutilon theophrasti (ABUTH). After 8 days cultivation (post-emergence) under controlled conditions in a glasshouse (at 24/16° C., day/night; 14 hours light; 65% humidity), the plants are sprayed with an aqueous spray solution derived from the formulation of the technical active ingredient in acetone/water (50:50) solution containing 0.5% Tween 20 (polyoxyethylene sorbitan monolaurate, CAS RN 9005-64-5). Compounds are applied at 250 g/ha. The test plants are then grown in a glasshouse under controlled conditions in a glasshouse (at 24/16° C., day/night; 14 hours light; 65% humidity) and watered twice daily. After 13 days, the test is evaluated for the percentage damage caused to the plant. The biological activities are assessed on a five point scale (5=80-100%; 4=60-79%; 3=40-59%; 2=20-39%; 1=0-19%). A blank value in the table is indicative that the compound was not tested on that species.

[2] = tested on: Amaranthus retoflexus (AMARE); experiment: B2 Post-Emergence Efficacy Test 2
Protocol: as §1

[3] = tested on: Echinochloa crus-galli (ECHCG); experiment: B2 Post-Emergence Efficacy Test 2
Protocol: as §1

[4] = tested on: Ipomoea hederacea (IPOHE); experiment: B2 Post-Emergence Efficacy Test 2
Protocol: as §1

Setaria faberi (SETFA) [5] = experiment: B2 Post-Emergence Efficacy Test 2
Protocol: as §1

Zea Mays (ZEAMX) [6] = experiment: B2 Post-Emergence Efficacy Test 2
Protocol: as §1

[7] = tested on: Abutilon theophrasti (ABUTH); experiment: B4 Pre-Emergence Efficacy Test 2
Protocol: (§2) Seeds of a variety of test species were sown in standard soil in pots: Amaranthus retoflexus (AMARE), Setaria faberi (SETFA), Echinochloa crus-galli (ECHCG), Ipomoea hederacea (IPOHE), Zea Mays (ZEAMX), Abutilon theophrasti (ABUTH). After cultivation for one day (pre-emergence) under controlled conditions in a glasshouse (at 24/16° C., day/night; 14 hours light; 65% humidity), the plants were sprayed with an aqueous spray solution derived from the formulation of the technical active ingredient in acetone/water (50:50) solution containing 0.5% Tween 20 (polyoxyethelyene sorbitan monolaurate, CAS RN 9005-64-5). Compounds are applied at 250 g/ha. The test plants were then grown in a glasshouse under controlled conditions (at 24/16° C., day/night; 14 hours light; 65% humidity) and watered twice daily. After 13 days, the test is evaluated for the percentage damage caused to the plant. The biological activities are assessed on a five point scale (5=80-100%; 4=60-79%; 3=40-59%; 2=20-39%; 1=0-19%). A blank value in the table is indicative that the compound was not tested on that species.

[8] = tested on: Amaranthus retoflexus (AMARE); experiment: B4 Pre-Emergence Efficacy Test 2
Protocol: as §2

[9] = tested on: Echinochloa crus-galli (ECHCG); experiment: B4 Pre-Emergence Efficacy Test 2
Protocol: as §2

[10] = tested on: Ipomoea hederacea (IPOHE); experiment: B4 Pre-Emergence Efficacy Test 2
Protocol: as §2

Setaria faberi (SETFA) [11] = experiment: B4 Pre-Emergence Efficacy Test 2
Protocol: as §2

Zea Mays (ZEAMX) [12] = experiment: B4 Pre-Emergence Efficacy Test 2
Protocol: as §2

Row | Structure (SMILES) | percentage damage caused to the plant, five point scale, ABUTH [1] | percentage damage caused to the plant, five point scale, AMARE [2] | percentage damage caused to the plant, five point scale, ECHCG [3] | percentage damage caused to the plant, five point scale, IPOHE [4] | percentage damage caused to the plant, five point scale, SETFA (Setaria faberi (SETFA) [5]) | percentage damage caused to the plant, five point scale, ZEAMX (Zea Mays (ZEAMX) [6]) | percentage damage caused to the plant, five point scale, ABUTH [7] | percentage damage caused to the plant, five point scale, AMARE [8] | percentage damage caused to the plant, five point scale, ECHCG [9] | percentage damage caused to the plant, five point scale, IPOHE [10] | percentage damage caused to the plant, five point scale, SETFA (Setaria faberi (SETFA) [11]) | percentage damage caused to the plant, five point scale, ZEAMX (Zea Mays (ZEAMX) [12])
1 | Cc1nn(C)c(=O)c(-c2c(F)ccc(Cl)c2CCc2ccc3cnn(C)c3c2)c1O [Compound 1.353] | 4 (4=60-79%) | 4 (4=60-79%) | 4 (4=60-79%) | 3 (3=40-59%) | 4 (4=60-79%) | 3 (3=40-59%) | 4 (4=60-79%) | 5 (5=80-100%) | 5 (5=80-100%) | 5 (5=80-100%) | 5 (5=80-100%) | 4 (4=60-79%)
2 | Cc1nn(C)c(=O)c(-c2c(F)ccc(Cl)c2CCc2ccc3c(cnn3C)c2)c1O [Compound 1.354] | 4 (4=60-79%) | 4 (4=60-79%) | 5 (5=80-100%) | 4 (4=60-79%) | 4 (4=60-79%) | 4 (4=60-79%) | 4 (4=60-79%) | 4 (4=60-79%) | 5 (5=80-100%) | 5 (5=80-100%) | 5 (5=80-100%) | 4 (4=60-79%)
3 | Cc1nn(C)c(=O)c(-c2c(F)ccc(Cl)c2CCc2ccc3ccn(C)c3c2)c1O [Compound 1.355] | 3 (3=40-59%) | 4 (4=60-79%) | 1 (1=0-19%) | 4 (4=60-79%) | 2 (2=20-39%) | 1 (1=0-19%) | 0 | 3 (3=40-59%) | 0 | 2 (2=20-39%) | 1 (1=0-19%) | 1 (1=0-19%)
4 | Cc1nn(C)c(=O)c(-c2c(F)ccc(Cl)c2CCc2ccc3c(ccn3C)c2)c1O [Compound 1.356] | 4 (4=60-79%) | 5 (5=80-100%) | 4 (4=60-79%) | 4 (4=60-79%) | 5 (5=80-100%) | 2 (2=20-39%) | 1 (1=0-19%) | 3 (3=40-59%) | 1 (1=0-19%) | 2 (2=20-39%) | 1 (1=0-19%) | 0
5 | Cc1nn(C)c(=O)c(-c2c(F)ccc(Cl)c2CCc2nc3ccccc3o2)c1O [Compound 1.359] | 4 (4=60-79%) | 3 (3=40-59%) | 3 (3=40-59%) | 2 (2=20-39%) | 3 (3=40-59%) | 1 (1=0-19%) | 5 (5=80-100%) | 5 (5=80-100%) | 5 (5=80-100%) | 4 (4=60-79%) | 5 (5=80-100%) | 3 (3=40-59%)
